Laboratory results from patent publication US12421254B2, “KRAS modulators and uses thereof” (Quanta Therapeutics, Inc., priority 2023, dated 2025).

Legend:
[1] = system: phospho-ERK in SW620 (KRAS-G12V) cells; assay: pERK In Cell Western (ICW) assay (Method B), SW620; format: cell-based
In short: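 Per well, infrared pERK immunofluorescence was divided by DRAQ5 nuclear signal following 3 h treatment with a 9-point, ½-log compound series; seeding was 5,000 (AGS) or 10,000 (GP2D, SW620) cells per well. Percent-of-blank data were fitted to a four-parameter model for IC50.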

[2] = target: GST-tagged KRAS-G12V (2-169) (Homo sapiens, UniProt P01116, G12V); assay: Nucleotide exchange assay (NEA), SOS-mediated, HTRF, KRAS G12V; format: biochemical; conditions: Table 4; IC50 extracted at 90 min; 80 nM SOS
In short: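 Exchange onto fluorescent GTP-DY-647P1 (150 nM final) catalysed by 80 nM SOS1cat was followed by Tb-anti-GST HTRF at RT for up to 90 min, after 1 h compound pre-incubation with 0.25 nM GST-tagged KRAS-G12V (2-169), pH 7.3. DMSO = 0%, no-SOS blank = 100%; 4-parameter IC50 taken at 90 min.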

[3] = target: GST-tagged KRAS-G12D (2-169) (Homo sapiens, UniProt P01116, G12D); assay: Nucleotide exchange assay (NEA), SOS-mediated, HTRF, KRAS G12D; format: biochemical; conditions: Table 4; IC50 extracted at 30 min; 20 nM SOScat; read-out: NEA G12D IC50
In short: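 SOS1cat-driven loading of fluorescent GTP-DY-647P1 (150 nM) onto GST-KRAS-G12D (2-169, 0.25 nM) read by time-resolved FRET; SOScat 20 nM, compound preincubated with KRAS 1 h at RT. Signal blanked to no-SOS reactions, normalized to DMSO; IC50 fitted from the 30-min read.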

[4] = system: phospho-ERK in GP2D (KRAS-G12D) cells; assay: pERK In Cell Western (ICW) assay (Method B), GP2D; format: cell-based
Procedure: pERK ICW is a high throughput screening assay to evaluate the cellular potency of mutant KRAS small molecule inhibitors. KRAS mutant cell lines AGS, GP2D (KRAS-G12D) as well as SW620 (KRAS-G12V) were purchased from ATCC and maintained respectively in RPMI/DMEM/RPMI medium supplemented with 10% fetal bovine serum.
Cells grown in exponential phase were trypsinized, resuspended in fresh media, and viable cells were counted using a cell counter with Trypan Blue (BioRad TC20). Cells were seeded into 384-well plate (Greiner 781091) at density of 5,000 cells/well for AGS and 10,000 cells/well for GP2D/SW620 and allowed to grow overnight in a 37° C. CO2 incubator. The next day, compounds were dispensed into wells with a ½ log, 9-point serial dilution using a Tecan D300e dispenser and incubated for 3 hours in a 37° C. CO2 incubator. Cells were then fixed with paraformaldehyde (Electron Microscopy Sciences, 15710, 4% final concentration) for 30 min, permeabilized with wash buffer (1×PBS+0.1% Triton X-100) for 30 min and blocked with Odyssey blocking buffer (Li—COR 927-70001) for 1 hour, all at room temperature (RT). Phospho-ERK antibody (CST 4370L) was diluted 1:500 in Odyssey T20 (PBS) antibody diluent (Li—COR 927-75001) and incubated with cells overnight at 4° C. The next day, plates were washed 5× with wash buffer, incubated with IRDye 800 CW, Goat anti-Rabbit secondary antibody (Li—COR 926-32211, 1:800) and DRAQ5 (CST 4084L, 1:5,000) diluted in Odyssey T20 (PBS) antibody diluent for 1 hour, washed 5×, and imaged on an Odyssey CLx imaging system.
For data analysis, signal intensities from 800 (phosphor-ERK) and 700 (DRAQ5) channels were extracted, and phospho-ERK signals were normalized to DRAQ5 signals for each well and percent of blank control values were computed. Data were then imported into Graphpad Prism to compute half-maximal inhibitory concentrations (IC50) using a 4-parameter variable slope model. Z-factor for each plate was computed from signals derived from wells treated with either DMSO or 5 μM of control compound. AGS pERK ICW (Method B) IC50 (uM) values of selected compounds are depicted in Table 2 with compounds having a value ≥0.001 uM to 0.01 uM as ++++; ≥0.01 uM to 0.1 uM as +++; ≥0.1 uM to 1 uM as ++; ≥1 uM to 10 uM as + and ≥10 uM as NA.

[5] = Homo sapiens, SW-620, 3 h, Table 4

GST-tagged KRAS-G12D (2-169), sequence (P01116 2-169 isoform P01116-2 G12D): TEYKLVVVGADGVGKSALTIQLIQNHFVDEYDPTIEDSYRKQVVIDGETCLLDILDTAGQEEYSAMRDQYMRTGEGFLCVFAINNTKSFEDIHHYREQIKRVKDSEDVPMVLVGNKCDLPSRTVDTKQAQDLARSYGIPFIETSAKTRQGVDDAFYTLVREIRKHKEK
GST-tagged KRAS-G12V (2-169), sequence (P01116 2-169 isoform P01116-2 G12V): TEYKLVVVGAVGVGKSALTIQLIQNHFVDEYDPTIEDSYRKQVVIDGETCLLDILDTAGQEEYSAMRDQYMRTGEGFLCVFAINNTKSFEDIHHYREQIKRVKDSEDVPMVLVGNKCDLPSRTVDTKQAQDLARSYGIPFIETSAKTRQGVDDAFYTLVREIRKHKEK

Row | Structure (SMILES) | IC50 [1, 5] [nM] | IC50 [2] [nM] | IC50 [3] [nM] | IC50 ([4]; GP2d, 3 h, Table 4) [nM] | IC50 ([1]; Table 4, 3 hours) [nM] | IC50 ([4]; Table 4, 3 hours) [nM]
1 | CCN(c1nc(OC[C@@]23CCCN2C[C@H](F)C3)nc(N2CC3(C2)SCc2sc(N)c(C#N)c23)n1)C(C)c1nonc1N (stereo partly drawn) [Compound 171, 2-amino-1′-[4-[1-(4-amino-1,2,5-oxadiazol-3-yl)ethyl-ethyl-amino]-6-[[(2R,8S)-2-fluoro-1,2,3,5,6,7-hexahydropyrrolizin-8-yl]methoxy]-1,3,5-triazin-2-yl]spiro[6H-thieno[2,3-c]thiophene-4,3′-azetidine]-3-carbonitrile] | < 10 | < 10 | 10 to 100 | 10 to 100 |  | 
2 | CC(c1nccnc1N)N(C)c1nc(OC[C@@]23CCCN2C[C@H](F)C3)nc(N2CC3(CCc4sc(N)c(C#N)c43)C2)n1 (single isomer, unassigned) [Compound 116A, 2-amino-1′-[4-[[(1*)-1-(3-aminopyrazin-2-yl)ethyl]-methyl-amino]-6-[[(2R,8S)-2-fluoro-1,2,3,5,6,7-hexahydropyrrolizin-8-yl]methoxy]-1,3,5-triazin-2-yl]spiro[5,6-dihydrocyclopenta[b]thiophene-4,3′-azetidine]-3-carbonitrile] | 10 to 100 | < 10 | < 10 | 10 to 100 |  | 
3 | N#Cc1c(N)sc2c1C1(CN(c3nc(OC[C@@]45CCCN4C[C@H](F)C5)nc(N4CCOCC(C#N)C4)n3)C1)SC2 (stereo partly drawn) [Compound 146, 4-[4-(2-amino-3-cyano-spiro[6H-thieno[3,4-b]thiophene-4,3′-azetidine]-1′-yl)-6-[[(2R,8S)-2-fluoro-1,2,3,5,6,7-hexahydropyrrolizin-8-yl]methoxy]-1,3,5-triazin-2-yl]-1,4-oxazepane-6-carbonitrile] | 100 to 1000 | < 10 | 10 to 100 | 100 to 1000 |  | 
4 | N#Cc1c(N)sc2c1C1(CC2)CN(c2nc(OC[C@@]34CCCN3C[C@H](F)C4)nc(N(CCO)Cc3ccc[nH]c3=O)n2)C1 [Compound 136, 2-amino-1′-[4-[[(2R,8S)-2-fluoro-1,2,3,5,6,7-hexahydropyrrolizin-8-yl]methoxy]-6-[2-hydroxyethyl-[(2-oxo-1H-pyridin-3-yl)methyl]amino]-1,3,5-triazin-2-yl]spiro[5,6-dihydrocyclopenta[b]thiophene-4,3′-azetidine]-3-carbonitrile] | 1000 to 20000 | 100 to 1000 | 100 to 1000 | 1000 to 20000 |  | 
5 | CC(c1cccnc1N)N(CCO)c1nc(OC[C@@]23CCCN2C[C@H](F)C3)nc(N2CC3(CCc4sc(N)c(C#N)c43)C2)n1 (single isomer, unassigned) [Compound 122B, 2-amino-1′-[4-[[(1*)-1-(2-amino-3-pyridyl)ethyl]-(2-hydroxyethyl)amino]-6-[[(2R,8S)-2-fluoro-1,2,3,5,6,7-hexahydropyrrolizin-8-yl]methoxy]-1,3,5-triazin-2-yl]spiro[5,6-dihydrocyclopenta[b]thiophene-4,3′-azetidine]-3-carbonitrile] |  | < 10 | < 10 |  | 10 to 100 | 10 to 100
6 | C[C@]1(O)CN(c2nc(OC[C@@]34CCCN3C[C@H](F)C4)nc(N3CC4(CCc5sc(N)c(C#N)c54)C3)n2)CC[C@@H]1O (racemic) [Compound 62, 2-amino-1′-[4-[rac-(3S,4S)-3,4-dihydroxy-3-methyl-1-piperidyl]-6-[[(2R,8S)-2-fluoro-1,2,3,5,6,7-hexahydropyrrolizin-8-yl]methoxy]-1,3,5-triazin-2-yl]spiro[5,6-dihydrocyclopenta[b]thiophene-4,3′-azetidine]-3-carbonitrile] | ≥ 20000 | 100 to 1000 | 100 to 1000 | ≥ 20000 |  | 
7 | C[C@]1(CO)C[C@@H](O)CN1c1nc(OC[C@@]23CCCN2C[C@H](F)C3)nc(N2CC3(CCc4sc(N)c(C#N)c43)C2)n1 [Compound 58, 2-amino-1′-[4-[[(2R,8S)-2-fluoro-1,2,3,5,6,7-hexahydropyrrolizin-8-yl]methoxy]-6-[(2R,4R)-4-hydroxy-2-(hydroxymethyl)-2-methyl-pyrrolidin-1-yl]-1,3,5-triazin-2-yl]spiro[5,6-dihydrocyclopenta[b]thiophene-4,3′-azetidine]-3-carbonitrile] | 1000 to 20000 | 10 to 100 | 10 to 100 | 1000 to 20000 |  | 
8 | C[C@@]1(CO)C[C@@H](O)CN1c1nc(OC[C@@]23CCCN2C[C@H](F)C3)nc(N2CC3(CCc4sc(N)c(C#N)c43)C2)n1 [Compound 59, 2-amino-1′-[4-[[(2R,8S)-2-fluoro-1,2,3,5,6,7-hexahydropyrrolizin-8-yl]methoxy]-6-[(2S,4R)-4-hydroxy-2-(hydroxymethyl)-2-methyl-pyrrolidin-1-yl]-1,3,5-triazin-2-yl]spiro[5,6-dihydrocyclopenta[b]thiophene-4,3′-azetidine]-3-carbonitrile] | ≥ 20000 | 10 to 100 | 100 to 1000 | ≥ 20000 |  | 
9 | C[C@@]1(O)CCCN(c2nc(OC[C@@]34CCCN3C[C@H](F)C4)nc(N3CC4(C3)c3c(sc(N)c3C#N)CC4F)n2)C1 (stereo partly drawn) [Compound 71, 2-amino-5-fluoro-1′-[4-[[(2R,8S)-2-fluoro-1,2,3,5,6,7-hexahydropyrrolizin-8-yl]methoxy]-6-[(3R)-3-hydroxy-3-methyl-1-piperidyl]-1,3,5-triazin-2-yl]spiro[5,6-dihydrocyclopenta[b]thiophene-4,3′-azetidine]-3-carbonitrile] | 100 to 1000 | 10 to 100 | < 10 | 100 to 1000 |  | 
10 | CC(c1cccnc1N)N(C)c1nc(OC[C@@]23CCCN2C[C@H](F)C3)nc(N2CC3(CCc4sc(N)c(C#N)c43)C2)n1 (single isomer, unassigned) [Compound 100A, 2-amino-1′-[4-[[(1*)-1-(2-amino-3-pyridyl)ethyl]-methyl-amino]-6-[[(2R,8S)-2-fluoro-1,2,3,5,6,7-hexahydropyrrolizin-8-yl]methoxy]-1,3,5-triazin-2-yl]spiro[5,6-dihydrocyclopenta[b]thiophene-4,3′-azetidine]-3-carbonitrile] | < 10 | < 10 | < 10 |  |  | 10 to 100
11 | C[C@H](c1cc(N)ncc1F)N(C)c1nc(OC[C@@]23CCCN2C[C@H](F)C3)nc(N2CC3(CCc4sc(N)c(C#N)c43)C2)n1 [Compound 142, 2-amino-1′-[4-[[(1R)-1-(2-amino-5-fluoro-4-pyridyl)ethyl]-methyl-amino]-6-[[(2R,8S)-2-fluoro-1,2,3,5,6,7-hexahydropyrrolizin-8-yl]methoxy]-1,3,5-triazin-2-yl]spiro[5,6-dihydrocyclopenta[b]thiophene-4,3′-azetidine]-3-carbonitrile] |  | < 10 | < 10 |  | 10 to 100 | 10 to 100
12 | CC(=O)C(O)(O)C(=O)N1[C@@H]2CC[C@H]1CN(c1nc(OC[C@@]34CCCN3C[C@H](F)C4)nc(N3CC4(C3)SCc3sc(N)c(C#N)c34)n1)C2 [Compound 159, 2-amino-1′-[4-[(1R,5S)-8-(2,2-dihydroxy-3-oxo-butanoyl)-3,8-diazabicyclo[3.2.1]octan-3-yl]-6-[[(2R,8S)-2-fluoro-1,2,3,5,6,7-hexahydropyrrolizin-8-yl]methoxy]-1,3,5-triazin-2-yl]spiro[6H-thieno[3,4-b]thiophene-4,3′-azetidine]-3-carbonitrile] | 1000 to 20000 | 100 to 1000 | 10 to 100 | 100 to 1000 |  | 
